In patent US20250179040A1, “HISTAMINE H3 RECEPTOR ANTAGONISTS AND THEIR PHARMACEUTICAL USES” (HANGZHOU BIO-SINCERITY PHARMA-TECH CO., LTD., priority 2022, published 2025) one finds inhibition data, which are given here for 13 compounds.

The target of one data set is histamine H3 receptor (Homo sapiens, UniProt Q9Y5N1). Put plainly: FLPPR assay, antagonistic activity on histamine H3 receptor. It is filed as cell-based. Particulars: for inhibition at 0.005 µM: read-out: % Inh-AVERAGE @ 5 nM; for inhibition at 0.05 µM: read-out: % Inh-AVERAGE @ 50 nM. The method, then:
The FLPPR assay (NIH Assay Guidance Manual: HTS Assay Validation-Section 4.3. Analysis (Potency), htpps://www.ncbi.nlm.nih.gov/books/NBK83783) was performed using SUVN-G3031 as a positive control, and 21 target compounds were tested for the antagonistic activity target to histamine H3 receptor.

The next data set deals with hERG channel (Homo sapiens, UniProt Q12809). Put plainly: in vitro. Particulars: Average inhibition rate (%) on hERG channel. The source says:
In cardiomyocytes, inhibition of the delayed rectifier potassium current (IKr) channel protein encoded by the human Ether-a-go-go Related Gene (hERG) is the most important mechanism by which drugs lead to prolongation of the QT interval. hERG is characterized by a specific molecular structure, which allows it to be inhibited by different structures, leading to severe arrhythmias. Statistically, 25-40% of lead compounds show varying degrees of hERG-related toxicity. Therefore, early evaluation of the effects of compounds on hERG is crucial in the drug development process.
The inhibition rate of compounds on hERG channels was examined by manual membrane clamp technique on HEK293 cell line which is stably expressing hERG ion channels.
On the technique in general: hERG is a cardiac potassium channel; its block is linked to QT prolongation.

Sequence of histamine H3 receptor (Q9Y5N1 whole entry, species assumed): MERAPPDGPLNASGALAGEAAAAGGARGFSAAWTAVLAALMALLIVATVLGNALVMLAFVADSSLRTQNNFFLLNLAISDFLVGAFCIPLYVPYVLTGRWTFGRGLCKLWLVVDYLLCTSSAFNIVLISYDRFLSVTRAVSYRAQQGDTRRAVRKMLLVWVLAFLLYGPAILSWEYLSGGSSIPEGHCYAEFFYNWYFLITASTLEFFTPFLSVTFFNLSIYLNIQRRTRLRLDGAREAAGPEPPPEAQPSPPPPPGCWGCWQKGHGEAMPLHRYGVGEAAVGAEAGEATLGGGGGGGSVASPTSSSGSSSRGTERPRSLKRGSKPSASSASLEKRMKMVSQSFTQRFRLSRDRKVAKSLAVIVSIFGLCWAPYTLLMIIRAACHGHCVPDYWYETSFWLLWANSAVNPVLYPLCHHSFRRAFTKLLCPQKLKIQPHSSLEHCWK
Sequence of hERG channel (Q12809 whole entry): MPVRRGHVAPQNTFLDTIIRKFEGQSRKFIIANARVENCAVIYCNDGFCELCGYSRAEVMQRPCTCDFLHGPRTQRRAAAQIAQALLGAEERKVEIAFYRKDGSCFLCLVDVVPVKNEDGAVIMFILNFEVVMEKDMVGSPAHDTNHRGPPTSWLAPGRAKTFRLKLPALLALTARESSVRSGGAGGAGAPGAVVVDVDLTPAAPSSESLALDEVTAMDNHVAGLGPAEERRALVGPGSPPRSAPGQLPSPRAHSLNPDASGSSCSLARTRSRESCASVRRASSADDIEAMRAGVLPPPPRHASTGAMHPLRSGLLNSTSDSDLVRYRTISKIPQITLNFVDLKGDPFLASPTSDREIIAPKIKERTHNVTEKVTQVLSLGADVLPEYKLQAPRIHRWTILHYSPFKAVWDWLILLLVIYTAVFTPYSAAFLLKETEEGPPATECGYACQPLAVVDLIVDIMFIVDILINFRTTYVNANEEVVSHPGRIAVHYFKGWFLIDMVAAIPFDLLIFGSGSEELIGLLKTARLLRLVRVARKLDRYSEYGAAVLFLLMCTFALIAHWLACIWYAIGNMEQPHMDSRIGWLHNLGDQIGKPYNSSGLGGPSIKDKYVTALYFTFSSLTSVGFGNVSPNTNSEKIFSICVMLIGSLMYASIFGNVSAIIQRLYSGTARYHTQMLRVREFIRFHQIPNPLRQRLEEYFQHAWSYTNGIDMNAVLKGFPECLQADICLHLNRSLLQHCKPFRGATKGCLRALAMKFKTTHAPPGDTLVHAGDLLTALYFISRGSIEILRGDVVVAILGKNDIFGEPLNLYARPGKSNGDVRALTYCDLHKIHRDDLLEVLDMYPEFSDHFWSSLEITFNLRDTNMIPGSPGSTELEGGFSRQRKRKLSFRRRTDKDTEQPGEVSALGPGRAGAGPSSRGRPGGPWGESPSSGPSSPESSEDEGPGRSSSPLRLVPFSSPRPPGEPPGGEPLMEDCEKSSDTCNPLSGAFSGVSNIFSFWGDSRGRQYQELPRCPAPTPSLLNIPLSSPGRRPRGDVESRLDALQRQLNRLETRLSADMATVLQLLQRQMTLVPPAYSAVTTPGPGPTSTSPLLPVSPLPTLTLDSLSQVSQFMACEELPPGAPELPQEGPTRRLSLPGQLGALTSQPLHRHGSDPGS

Regarding `O=C(CN1CCOCC1)Nc1ccc(OC2CC(N3CCCCC3)C2)cc1` (centres unmarked) [BIOS-B-1, 2-morpholino-N-(4-(3-(piperidin-1-yl)cyclobutoxy)phenyl)acetamide], at histamine H3 receptor, the inhibition at 0.005 µM stood at 91.7% and the inhibition at 0.05 µM came to 100%. The inhibition at 10 µM against hERG channel was 8.54%.
On to `C[C@@H]1CCCN1CC(=O)Nc1ccc(OC2CC(N3CCCCC3)C2)cc1` (stereo partly drawn) [BIOS-B-2, (R)-2-(2-methylpyrrolidin-1-yl)-N-(4-(3-(piperidin-1-yl)cyclobutoxy)phenyl)acetamide], for which, on histamine H3 receptor, the inhibition at 0.005 µM came to 100% and the inhibition at 0.05 µM was 100%.
In the case of `O=C(CN1CCCCC1)Nc1ccc(OC2CC(N3CCCCC3)C2)cc1` (centres unmarked) [BIOS-B-3, 2-(piperidin-1-yl)-N-(4-(3-(piperidin-1-yl)cyclobutoxy)phenyl)acetamide], at histamine H3 receptor, the inhibition at 0.005 µM came out at 95.6% and the inhibition at 0.05 µM was 99.4%.
On to `CN1CCCN(CC(=O)Nc2ccc(OC3CC(N4CCCCC4)C3)cc2)CC1` (centres unmarked) [BIOS-B-4, 2-(4-methyl-1,4-diazepan-1-yl)-N-(4-(3-(piperidin-1-yl)cyclobutoxy)phenyl)acetamide], for which, on histamine H3 receptor, the inhibition at 0.005 µM was determined as 101% and the inhibition at 0.05 µM stood at 100%.
With `O=C(CN1CCC(F)(F)CC1)Nc1ccc(OC2CC(N3CCCCC3)C2)cc1` (centres unmarked) [BIOS-B-5, 2-(4,4-difluoropiperidin-1-yl)-N-(4-(3-(piperidin-1-yl)cyclobutoxy)phenyl)acetamide], on histamine H3 receptor, the inhibition at 0.005 µM stood at 98.9% and the inhibition at 0.05 µM is 99.9%.
With `O=C(CN1CCC(O)CC1)Nc1ccc(OC2CC(N3CCCCC3)C2)cc1` (centres unmarked) [BIOS-B-6, 2-(4-hydroxypiperidin-1-yl)-N-(4-(3-(piperidin-1-yl)cyclobutoxy)phenyl)acetamide], at histamine H3 receptor, the inhibition at 0.005 µM was 103% and the inhibition at 0.05 µM was determined as 99.8%.
As to `O=C(CN1CCSCC1)Nc1ccc(OC2CC(N3CCCCC3)C2)cc1` (centres unmarked) [BIOS-B-7, N-(4-(3-(piperidin-1-yl)cyclobutoxy)phenyl)-2-thiomorpholinoacetamide], at histamine H3 receptor, the inhibition at 0.005 µM worked out at 88.3% and the inhibition at 0.05 µM amounted to 99.5%.
For `O=C(CN1CCCC(CCO)C1)Nc1ccc(OC2CC(N3CCCCC3)C2)cc1` (centres unmarked) [BIOS-B-8, 2-(3-(2-hydroxyethyl)piperidin-1-yl)-N-(4-(3-(piperidin-1-yl)cyclobutoxy)phenyl)acetamide], on histamine H3 receptor, the inhibition at 0.005 µM came to 101% and the inhibition at 0.05 µM was found to be 99.5%. The inhibition at 10 µM against hERG channel turned out to be 4.82%.
Regarding `O=C(CN1CCNCC1)Nc1ccc(OC2CC(N3CCCCC3)C2)cc1` (centres unmarked) [BIOS-B-9, 2-(piperazin-1-yl)-N-(4-(3-(piperidin-1-yl)cyclobutoxy)phenyl)acetamide], on histamine H3 receptor, the inhibition at 0.005 µM is 101% and the inhibition at 0.05 µM turned out to be 99.6%. In addition, the inhibition at 10 µM at hERG channel is -1.03%.
Regarding `CN1CCN(CC(=O)Nc2ccc(OC3CC(N4CCCCC4)C3)cc2)CC1` (centres unmarked) [BIOS-B-10, 2-(4-methylpiperazin-1-yl)-N-(4-(3-(piperidin-1-yl)cyclobutoxy)phenyl)acetamide], at histamine H3 receptor, the inhibition at 0.005 µM amounted to 99.5% and the inhibition at 0.05 µM was determined as 97.5%. The inhibition at 10 µM against hERG channel was -1.26%.
With `O=C(CN1CCCC(O)C1)Nc1ccc(OC2CC(N3CCCCC3)C2)cc1` (centres unmarked) [BIOS-B-11, 2-(3-hydroxypiperidin-1-yl)-N-(4-(3-(piperidin-1-yl)cyclobutoxy)phenyl)acetamide], at histamine H3 receptor, the inhibition at 0.005 µM came out at 97% and the inhibition at 0.05 µM is 99.4%. Further, at hERG channel, the inhibition at 10 µM is 2.96%.
Regarding `O=C(NCCN1CCOCC1)Nc1ccc(OC2CC(N3CCCCC3)C2)cc1` (centres unmarked) [BIOS-B-13, 1-(2-morpholinoethyl)-3-(4-(3-(piperidin-1-yl)cyclobutoxy)phenyl)urea], on histamine H3 receptor, the inhibition at 0.005 µM amounted to 99.6% and the inhibition at 0.05 µM amounted to 99.8%. Further, the inhibition at 10 µM on hERG channel is -1.47%.
As to `O=C(CN1CCOCC1)Nc1ccc(OC2CCN(C3CCC3)CC2)cc1` [SUVN-G3031, Samelisant, reference compound], at histamine H3 receptor, the inhibition at 0.005 µM was 57.8% and the inhibition at 0.05 µM was found to be 85.8%.
